Activity calls are given as the source filed them. The rule behind the calls is not given here.
Assays:
[1] = Selectivity ratio of Ki for horse serum BuChE to Ki for human erythrocytes AchE
[2] = biological target: T1, Acetylcholinesterase (Homo sapiens, UniProt P22303); assay: Non-competitive inhibition of human erythrocytes AchE using acetylthiocholine iodide as substrate incubated for 20 mins by Lineweaver-Burk plot analysis
[3] = Selectivity ratio of IC50 for horse serum BuChE to IC50 for human erythrocytes AchE
[4] = biological target: Cholinesterase (Equus caballus) (UniProt P81908); assay: Inhibition of horse serum BuChE using butyrylthiocoline iodide as substrate at 2 uM preincubated for 20 mins followed by 100 fold dilution by Ellman method
[5] = biological target: T1, Acetylcholinesterase; assay: Inhibition of human erythrocytes AchE using acetylthiocholine iodide as substrate incubated for 20 mins by Ellman method
[6] = biological target: T2, Cholinesterase (Equus caballus, UniProt P81908); assay: Inhibition of horse serum BuChE using butyrylthiocoline iodide as substrate incubated for 20 mins by Ellman method
[7] = biological target: T2, Cholinesterase; assay: Mixed inhibition of horse serum BuChE using butyrylthiocoline iodide as substrate incubated for 20 mins by Lineweaver-Burk plot analysis
[8] = biological target: Cholinesterase (Equus caballus) (UniProt P81908); assay: Inhibition of horse serum BuChE using butyrylthiocholine iodide as substrate at 2 uM incubated for 20 mins by Ellman method
[9] = biological target: T2, Cholinesterase; assay: Non-competitive inhibition of horse serum BuChE using butyrylthiocoline iodide as substrate incubated for 20 mins by Lineweaver-Burk plot analysis
[10] = biological target: Beta-secretase 1 (Mus musculus, UniProt P56818); assay: Inhibition of mouse BACE-1 preincubated for 10 mins followed by fluorescent peptide substrate addition measured for 30 mins by fluorescence plate reader method
[11] = biological target: Beta-secretase 1 (Mus musculus) (UniProt P56818); assay: Inhibition of mouse BACE-1 at 1 uM preincubated for 10 mins followed by fluorescent peptide substrate addition measured for 30 mins by fluorescence plate reader method
[12] = biological target: T1, Acetylcholinesterase
Description: Mixed inhibition of human erythrocytes AchE using acetylthiocholine iodide as substrate incubated for 20 mins by Lineweaver-Burk plot analysis

Chain of Beta-secretase 1 (Mus musculus) (P56818 whole entry): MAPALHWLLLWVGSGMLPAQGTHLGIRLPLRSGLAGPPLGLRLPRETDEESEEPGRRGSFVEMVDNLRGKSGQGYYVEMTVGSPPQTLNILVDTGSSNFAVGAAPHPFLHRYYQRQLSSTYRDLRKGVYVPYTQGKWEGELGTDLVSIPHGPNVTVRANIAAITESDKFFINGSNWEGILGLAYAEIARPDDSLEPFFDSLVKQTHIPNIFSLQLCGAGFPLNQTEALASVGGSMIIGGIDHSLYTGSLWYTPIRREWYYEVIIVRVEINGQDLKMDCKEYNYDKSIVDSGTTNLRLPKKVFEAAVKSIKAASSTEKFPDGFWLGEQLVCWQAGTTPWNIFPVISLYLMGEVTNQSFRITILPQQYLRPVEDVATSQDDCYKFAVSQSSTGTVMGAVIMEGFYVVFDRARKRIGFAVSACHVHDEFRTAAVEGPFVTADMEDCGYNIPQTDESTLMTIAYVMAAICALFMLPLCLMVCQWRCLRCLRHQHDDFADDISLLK
Chain of Beta-secretase 1 (P56818 whole entry): as above
T1 sequence (P22303 whole entry): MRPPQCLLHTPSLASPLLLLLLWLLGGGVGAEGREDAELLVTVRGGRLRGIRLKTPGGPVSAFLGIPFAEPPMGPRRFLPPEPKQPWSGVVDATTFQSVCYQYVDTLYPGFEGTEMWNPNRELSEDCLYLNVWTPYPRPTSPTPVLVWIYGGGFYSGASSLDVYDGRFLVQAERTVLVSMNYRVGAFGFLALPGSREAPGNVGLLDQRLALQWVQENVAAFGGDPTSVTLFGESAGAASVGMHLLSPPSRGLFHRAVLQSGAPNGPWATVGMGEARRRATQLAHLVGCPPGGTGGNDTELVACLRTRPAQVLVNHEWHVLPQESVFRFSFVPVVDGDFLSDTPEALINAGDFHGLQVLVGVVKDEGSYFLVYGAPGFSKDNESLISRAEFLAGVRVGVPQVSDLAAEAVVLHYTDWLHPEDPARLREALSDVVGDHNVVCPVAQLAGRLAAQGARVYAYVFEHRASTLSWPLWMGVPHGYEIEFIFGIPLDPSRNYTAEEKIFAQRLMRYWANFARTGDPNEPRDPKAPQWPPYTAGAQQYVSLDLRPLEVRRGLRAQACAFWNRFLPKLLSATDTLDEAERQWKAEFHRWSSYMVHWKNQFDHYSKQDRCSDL
Chain of Cholinesterase (Equus caballus) (P81908 whole entry): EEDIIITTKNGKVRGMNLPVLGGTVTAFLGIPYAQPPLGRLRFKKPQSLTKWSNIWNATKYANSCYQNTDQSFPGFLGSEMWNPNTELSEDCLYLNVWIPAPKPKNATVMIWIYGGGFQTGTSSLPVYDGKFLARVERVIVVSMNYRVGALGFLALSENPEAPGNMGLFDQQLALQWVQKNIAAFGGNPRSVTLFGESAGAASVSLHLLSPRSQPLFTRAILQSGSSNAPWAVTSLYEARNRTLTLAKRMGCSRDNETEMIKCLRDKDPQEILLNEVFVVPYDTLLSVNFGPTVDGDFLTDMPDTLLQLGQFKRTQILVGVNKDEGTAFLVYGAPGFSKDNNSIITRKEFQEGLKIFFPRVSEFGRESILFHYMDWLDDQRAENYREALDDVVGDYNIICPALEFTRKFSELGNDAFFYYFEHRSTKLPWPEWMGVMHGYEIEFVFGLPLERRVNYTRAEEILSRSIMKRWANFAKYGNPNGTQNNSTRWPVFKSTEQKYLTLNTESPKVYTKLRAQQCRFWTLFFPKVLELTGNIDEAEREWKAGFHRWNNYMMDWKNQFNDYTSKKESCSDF
T2 sequence (P81908 whole entry): as above

Row | SMILES | Ratio Ki [1] | Ki [2] [nM] | Ratio IC50 [3] | inhibition [4] | IC50 [5] [nM] | IC50 [6] [nM] | Ki [7] [nM] | inhibition [8] | Ki [9] [nM] | IC50 [10] [nM] | inhibition [11] | Ki [12] [nM]
1 | COc1ccc2c(c1)C(=O)/C(=C/C1CCN(Cc3ccccc3)CC1)C2 | 4 | 260 | 8 | Active | 342 | 2650 | 1140 | inactive | – | – | – | –
2 | O=C1/C(=C/C2CCN(Cc3ccccc3)CC2)Cc2ccc(O)cc21 | 1 | 4220 | 4 | Active | 1500 | 5800 | – | inactive | 5610 | – | – | –
3 | COc1cccc(CN2CCC(/C=C3\Cc4cccc(OC)c4C3=O)CC2)c1 | < 1 | 17200 | < 1 | Active | 12200 | 5410 | – | inactive | 2380 | – | – | –
4 | COc1cccc(CN2CCC(/C=C3\Cc4cc(OC)ccc4C3=O)CC2)c1 | 6 | 554 | 3 | Active | 853 | 2170 | – | inactive | 3490 | < 1000 | Active | –
5 | O=C1/C(=C/C2CCN(Cc3ccccc3)CC2)Cc2cccc(O)c21 | 18 | 355 | 7 | Active | 636 | 4760 | 6480 | inactive | – | < 1000 | Active | –
6 | COc1cccc2c1C(=O)/C(=C/C1CCN(Cc3ccc4c(c3)OCO4)CC1)C2 | – | – | – | Active | – | 4820 | – | inactive | 6440 | – | inactive | –
7 | O=C1/C(=C/C2CCN(Cc3ccccc3)CC2)Cc2cc(O)ccc21 | 4 | 1980 | 4 | Active | 2160 | 7590 | 8460 | inactive | – | < 1000 | Active | –
8 | O=C1/C(=C/C2CCN(Cc3ccccc3)CC2)Cc2cc3c(cc21)OCO3 | 7 | – | 20 | Active | 755 | 15100 | – | inactive | 7250 | < 1000 | Active | 980
9 | COc1cc2c(cc1O)C(=O)/C(=C/C1CCN(Cc3ccccc3)CC1)C2 | 4 | 2820 | 5 | Active | 1540 | 7350 | – | inactive | 10600 | – | – | –
10 | COc1cccc(CN2CCC(/C=C3\Cc4ccc(OC)cc4C3=O)CC2)c1 | < 1 | 119000 | < 1 | Active | 34500 | 1620 | – | inactive | 3890 | – | – | –
11 | COc1ccc2c(c1)C(=O)/C(=C/C1CCN(Cc3ccc4c(c3)OCO4)CC1)C2 | – | – | – | Active | – | 9820 | – | inactive | 4330 | – | inactive | –
12 | COc1cccc2c1C(=O)/C(=C/C1CCN(Cc3ccccc3)CC1)C2 | 2 | 1830 | 1 | Active | 1510 | 1140 | 3100 | inactive | – | – | – | –
13 | COc1cc2c(cc1O)C/C(=C\C1CCN(Cc3ccccc3)CC1)C2=O | 4 | 2820 | 5 | Active | 1540 | 7350 | – | inactive | 10600 | – | – | –
14 | COc1cc2c(cc1OC)C(=O)/C(=C/C1CCN(Cc3ccccc3)CC1)C2 | 71 | 35 | 81 | Active | 58 | 4740 | 2440 | inactive | – | < 1000 | Active | –
15 | COc1ccc2c(c1)C/C(=C\C1CCN(Cc3ccccc3)CC1)C2=O | 110 | 29 | 132 | Active | 43 | 5730 | – | inactive | 3140 | < 1000 | Active | –

— ChEMBL document CHEMBL3817803, “Design, Synthesis, and Evaluation of Donepezil-Like Compounds as AChE and BACE-1 Inhibitors” (ACS Med Chem Lett, 2016)
